Experimental data taken from patent EP1707197A1 (TEVA PHARMACEUTICAL INDUSTRIES LTD., priority 2005, dated 2006).

Experiment: small volume in vitro release test in 50 ml 0.1N HCl
Assay type: physicochemical
Conditions: 37° C, 150 rpm
Procedure: The formulations were tested for their small volume in vitro release characteristics in 50 ml 0.1N HCl at 37° C and 150 rpm using the following procedure:
• a. Automated Dissolution System comprising: • Hanson SR8 Plus Test Station • Hanson Auto Plus Maximiser System Controller • Hanson Auto Plus MultiFill Fraction Collector • b. HPLC System comprising: • pump - Merck Hitachi L-7100 • autoinjector - Merck Hitachi L-7200 • column oven - Merck Hitachi L-7300 • detector - Merck Hitachi L-7400 • interface and integration software - Merck Hitachi D-7000
Place one weighed capsule in each vessel containing 0.1N HCl and immediately operate the apparatus for 30 min. Unless otherwise specified, 3 ml samples are withdrawn from each vessel and immediately filtered through PTFE membranes at 15 and 30 min.
The small volume was chosen as a model of the conditions in a fasted stomach.

Compound: CC(C)OC(=O)C(C)(C)Oc1ccc(C(=O)c2ccc(Cl)cc2)cc1 [Micronized Fenofibrate, 2-[4-(4-chlorobenzoyl)phenoxy]-2-methyl-propanoic acid, 1-methylethyl ester]
- % dissolved 15 min (15 min): 0%
- % dissolved 30 min (30 min): 0%
